Data: a melting point compilation (Tetko et al.; mined from patent text by program, amines drawn as free bases though some values may be those of a salt)

First: O=C(Nc1ccccc1)N1CCC(C(Nc2ccc(F)cc2)c2ccc(F)cc2)CC1 (centres undefined)
Second: O=C(c1ccccc1)N1CCc2[nH]c3cccc(-c4ccccc4)c3c2CC1
The melting point of the first is lower: 96 to 101 °C for the first, 223 to 226 °C for the second.

First: COC1=CC(Cl)(OC)NC(C(=O)CC(=O)Nc2ccccc2)=N1 (centres undefined)
Second: COc1ccccc1NC(=O)Nc1nc(N(CCC(=O)O)Cc2ccc(Cl)c(Cl)c2)nc(=O)[nH]1
The melting point of the first is lower: 142 to 144 °C for the first, 188 °C for the second.

First: Cc1cc(NS(=O)(=O)c2ccc(Nc3nc(OCC4CCCCC4)c4nc[nH]c4n3)cc2)nc(C)n1
Second: NS(=O)(=O)c1ccc2c(c1)S(=O)(=O)NC(C1CCCCC1)N2 (centres undefined)
The melting point of the first is lower: 233 °C for the first, 252 to 254 °C for the second.

First: Cc1cc2c(nc1C(O)c1ccccc1)CCCCC2 (centres undefined)
Second: CNC(=O)c1cc2c(nc(C)n2C)c2c1CCC1(Cc3ccccc3C1)N2
The melting point of the first is lower: 130 to 132 °C for the first, 237 to 238 °C for the second.

Compared with `NS(=O)(=O)c1ccc(C(=O)NCc2ccccc2)s1`, `CCOC(=O)c1cc(=O)c(C(=O)c2ccccc2)co1` is lower in melting point: 203 °C for the first, 84 to 86 °C for the second.

Compared with `CCCCOC(=O)NC1CCN(c2c(F)cc3c(=O)c(C(=O)O)cn(C4CC4)c3c2F)C1` (centres undefined), `CCCCOC(=O)CNC(=O)c1ccc2cc(C(=O)OC)[nH]c2c1` is lower in melting point: 228 to 230 °C for the first, 181 to 184 °C for the second.

First: O=C1C(CCO)Oc2cc([N+](=O)[O-])ccc2N1Cc1ccccc1 (centres undefined)
Second: c1ccc(Cn2c(NC3=NCCN3)nc3ccccc32)cc1
The melting point of the first is lower: 102 to 105 °C for the first, 165 to 166 °C for the second.

First: COc1cccc(CNc2ncnc3c2sc2nc(N4CCSCC4)c4c(c23)CC(C)(C)CC4)c1OC
Second: COc1c(C)c(C)c(OC)c(C(CCCC(=O)O)c2cccnc2)c1C (centres undefined)
The melting point of the first is higher: 112 to 114 °C for the first, 82 to 84 °C for the second.

Compared with `COc1ccc2c(c1)CCC1CCN(C)C(=O)C(CC(C)=O)=C21` (centres undefined), `COc1cc2c(c(OC(C)=O)c1)C1CCC3(C)C(OC(=O)C(F)(F)F)CCC3C1CC2` (centres undefined) is lower in melting point: 190 to 192 °C for the first, 137 to 138 °C for the second.

First: Cn1cccc1C(=O)NCCCSc1ccncc1
Second: CN(c1cccc2cc(C(=O)O)[nH]c12)S(=O)(=O)c1nccn1C
The melting point of the first is lower: 74 to 75 °C for the first, 241 to 242 °C for the second.

First: O=C1c2ccccc2C(=O)c2sc(-c3ccoc3)nc21
Second: O=C1NC(=O)c2ccccc2/C1=C/Nc1ccc2cn[nH]c2c1
The melting point of the first is lower: 245 °C for the first, over 300 °C for the second.

First: Cc1nc(Cl)c(Cl)n1CCCCN1CCN(c2ncc(O)cn2)CC1
Second: Brc1ccc2c(c1)CCOC2CCN1CCN(c2ccc(OCc3ccccc3)cc2)CC1 (centres undefined)
The melting point of the first is higher: 154 to 156 °C for the first, 87 to 90 °C for the second.

First: CC(C)(C)c1cc(C=O)cc(I)c1O
Second: CC(C)(C)N1CN(c2ccccc2)C2=NN=CC2=C1N
The melting point of the first is lower: 124 °C for the first, 174 to 176 °C for the second.

First: CNC(=O)NS(=O)(=O)c1ccccc1C=CC(F)(F)F
Second: CCc1nc2cc(C(F)(F)F)c(Cl)cc2n1-c1ccc(CCOC(=O)NS(=O)(=O)c2cn(C)c(C)n2)cc1
The melting point of the first is lower: 190 to 192 °C for the first, 221 °C for the second.

Compared with `NC(=O)c1snnc1C1CC1`, `CSc1nc2ccc3c(c2o1)C(CCNC(C)=O)CC3` (centres undefined) is lower in melting point: 163 °C for the first, 115 to 117 °C for the second.

Compared with `CC(C)CCCC(C)C1CCC2C3=CC=C4CC(O)C=CC4(C)C3CCC21C` (centres undefined), `CC1CCC(C(C)C)C(OC(=O)[C@H]2C[C@@H]2C(=O)OC2CC(C)CCC2C(C)C)C1` (some centres undefined) is lower in melting point: 126 to 127 °C for the first, 95 to 96 °C for the second.

First: COC(CN(C)C(=O)Nc1nnc(C(C)Oc2cc(Cl)cc(Cl)c2)s1)OC (centres undefined)
Second: C=CCONC(=O)n1nc(Oc2c(Cl)cc(C(F)(F)F)cc2Cl)cc1C
The melting point of the first is higher: 149 to 152 °C for the first, 68 to 70 °C for the second.

Compared with `COc1ccc(-n2c(-c3ccc(SC)cc3)nc(SC)c(C#N)c2=O)cc1`, `Cc1ccc(-c2ccc(S(C)(=O)=O)cc2)n1-c1ccc(-c2ccco2)cc1` is lower in melting point: 214 to 216 °C for the first, 145 to 147 °C for the second.

First: O=C(NS(=O)(=O)c1ccccc1)c1ccc2nc(C3CC3)n(Cc3ccc(-c4ccccc4)cc3)c2c1
Second: CCc1nc2c(cnn2CC)c(NC2CCOCC2)c1CNC(=O)c1cccc(C(=O)NCc2ccc(Cl)c(-c3cccc(CN4CC(C)NC(C)C4)c3)c2)c1 (centres undefined)
The melting point of the first is higher: 221 to 225 °C for the first, 121 to 124 °C for the second.

First: CCCCCCCCCCCCCCCC(=O)OCc1ccco1
Second: N#CCCC1CN(C(=O)OCc2ccccc2)CCO1 (centres undefined)
The melting point of the first is lower: 31 to 33 °C for the first, 59 to 60 °C for the second.

First: Cc1coc(C)c1-c1nc2cc(Cl)cc(CCc3ccccn3)c2o1
Second: O=C(O)C(=O)c1c(Cl)cc(OCCOc2ccc3ccccc3c2)cc1Cl
The melting point of the first is lower: 73 to 76 °C for the first, 155 to 156 °C for the second.

Compared with `O=C1C(O)=C([N+](=O)[O-])C(=O)c2ccc(F)cc21`, `CN(c1cccc2c(F)c(C3=NCC(CC(N)=O)S3)[nH]c12)S(=O)(=O)c1cccs1` (centres undefined) is higher in melting point: 152 °C for the first, 204 to 205 °C for the second.

First: O=CN(O)C(CCc1ccccc1)CS(=O)(=O)N1CCN(c2cc(Cl)ncn2)CC1 (centres undefined)
Second: Cc1cccc(C(=O)c2ccc(OCC(=O)O)c(Cl)c2Cl)c1
The melting point of the first is lower: 155 to 157 °C for the first, 173 to 175 °C for the second.

First: CC(=O)OC1CSC(Oc2cc(Br)cnc2F)C(OC(C)=O)C1OC(C)=O (centres undefined)
Second: CSC1NC(=O)N(C2CCCCC2)C(=O)N1C (centres undefined)
The melting point of the first is lower: 120 to 122 °C for the first, 135 to 137 °C for the second.

Molecule `CN(C)C1(c2ccccc2)CCC2(OCCc3c2[nH]c2ccccc32)C(F)C1` (centres undefined) has a melting point of 245 to 247 °C.
